In PubChem BioAssay (NCI) one finds GI50 and TGI data, which are given here for 16 compounds.

“And” between values parts separate entries of the source, which are not always exact repeats. Identical values can stand only once.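 Cells were grown in 96-well plates and exposed to each compound for 48 hours at five concentrations; endpoints were interpolated linearly between bracketing concentrations, or set to the highest concentration if not reached. GI50 = concentration required for 50% inhibition of growth. At the TGI there is no net growth.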 Bounds are passed on as bounds.

The first experiment concerns OVCAR-4 ovarian. The experiment is described as follows: NCI anticancer screen, dose series, 48 h.
As for `C=CC(=O)Nc1cc(Nc2ncc(C(=O)OC(C)C)c(-c3cn(C)c4ccccc34)n2)c(OC)cc1N(C)CCN(C)C`, the GI50 was 4.97 µM and the TGI was 21.3 µM.
Consider `COc1cnc2c(c1)C(=O)c1c-2n(CCCN2CCOCC2)c(=O)c2cc(F)ccc12`, for which the GI50 was 0.352 µM and the TGI was over 100 µM.
As to `CN(C)c1ccc(/C=C\C2=[N+](C)c3ccccc3C2(C)C)cc1`, the GI50 is 0.981 µM and the TGI is over 59.4 µM.
`Nc1nc(-n2c(-c3ccccc3)nc3c(Br)cc(Br)cc3c2=O)nnc1-c1cccc(Cl)c1Cl`: the GI50 is 51.7 µM and the TGI is over 100 µM.
As to `Cc1ccnc2c1ccc1c(C)ccnc12`, the GI50 was 0.316 µM and the TGI was 4.23 µM.
As for `NS(=O)(=O)OC[C@@H]1C[C@@H](n2ccc3c(NC4CCc5ccccc54)ncnc32)C[C@@H]1O` (some centres undefined), the GI50 was 15.7 µM and the TGI was over 100 µM.
Consider `O=C1/C(=C/c2ccc(O)c(O)c2)CCC/C1=C\c1ccc(O)c(O)c1`, for which the TGI came out at 41.9 µM.
As for `Nc1ccccc1C#C/C=C\C#Cc1ccccc1OC(F)(F)F`, the GI50 was 11.6 µM and the TGI is 42 µM.
Consider `Cc1ccc(CN2CCC(C(=O)Nc3ccc(-c4cc5ccccc5[nH]4)cc3)CC2)o1`, for which the GI50 was 70.1 µM and the TGI is over 100 µM.
The compound `C=CCOc1ccc2c(C)cc(=O)oc2c1C` showed a TGI of over 100 µM.
`Fc1ccc(NC(=S)SCc2ccc3c(c2)OCO3)cc1F`: the TGI is over 100 µM.
Regarding `COc1cc2c(c(OC)c1OC)-c1ccc(NNC(N)=S)c(=O)cc1[C@@H](NC(C)=O)CC2`, the GI50 was 0.625 µM and the TGI is over 100 µM.
Take `CCOC(=O)Cn1c(C(F)(F)F)nc2nc(Cl)c(Cl)nc21`: the TGI amounted to 30.2 µM.
The compound `Cc1ccc(Cl)c2c(N=Nc3ccccc3[N+](=O)[O-])c(O)[nH]c12` displayed a TGI of over 100 µM.
In the case of `OC1CSSC1Cn1cnc2c(Nc3ccc(OCc4cccc(F)c4)c(Cl)c3)ncnc21` (centres undefined), the GI50 was 1.27 µM and the TGI stood at 8.53 µM.
For `C[C@@H](Oc1cc(-n2cnc3ccc(CN4CCN(C)CC4)cc32)sc1C(N)=O)c1ccccc1C(F)(F)F`, the GI50 was 0.817 µM and 0.98 µM; the TGI was 17.5 µM and > 10 µM.

For a further experiment, the system named is UACC-62 melanoma. In words: NCI anticancer screen, dose series, 48 h.
For the compound `C=CC(=O)Nc1cc(Nc2ncc(C(=O)OC(C)C)c(-c3cn(C)c4ccccc34)n2)c(OC)cc1N(C)CCN(C)C`, the GI50 was 2.34 µM and the TGI is 7 µM.
Take `COc1cnc2c(c1)C(=O)c1c-2n(CCCN2CCOCC2)c(=O)c2cc(F)ccc12`: the GI50 was 0.235 µM and the TGI worked out at 0.926 µM.
Regarding `CN(C)c1ccc(/C=C\C2=[N+](C)c3ccccc3C2(C)C)cc1`, the GI50 was 1.49 µM and the TGI is 19.9 µM.
On to `Nc1nc(-n2c(-c3ccccc3)nc3c(Br)cc(Br)cc3c2=O)nnc1-c1cccc(Cl)c1Cl`, for which the GI50 is 7.08 µM and the TGI was found to be 25.4 µM.
As for `Cc1ccnc2c1ccc1c(C)ccnc12`, the GI50 is 0.288 µM and the TGI is 1.03 µM.
The matching figures for `NS(=O)(=O)OC[C@@H]1C[C@@H](n2ccc3c(NC4CCc5ccccc54)ncnc32)C[C@@H]1O` (some centres undefined): 0.0856 µM and 20.6 µM.
Compound `O=C1/C(=C/c2ccc(O)c(O)c2)CCC/C1=C\c1ccc(O)c(O)c1` showed a TGI of 30.2 µM.
Regarding `Nc1ccccc1C#C/C=C\C#Cc1ccccc1OC(F)(F)F`, the GI50 was 5.94 µM and the TGI was found to be 21 µM.
`Cc1ccc(CN2CCC(C(=O)Nc3ccc(-c4cc5ccccc5[nH]4)cc3)CC2)o1`: the GI50 is 45.5 µM and the TGI was over 100 µM.
Turning to `C=CCOc1ccc2c(C)cc(=O)oc2c1C`, the TGI is over 100 µM.
As to `Fc1ccc(NC(=S)SCc2ccc3c(c2)OCO3)cc1F`, the TGI was found to be 27.3 µM.
For `COc1cc2c(c(OC)c1OC)-c1ccc(NNC(N)=S)c(=O)cc1[C@@H](NC(C)=O)CC2`, the GI50 was 0.666 µM and the TGI is over 100 µM.
The compound `CCOC(=O)Cn1c(C(F)(F)F)nc2nc(Cl)c(Cl)nc21` gave a TGI of over 78.4 µM.
Same read-out and setting: for `Cc1ccc(Cl)c2c(N=Nc3ccccc3[N+](=O)[O-])c(O)[nH]c12` the value was over 100 µM.
Turning to `OC1CSSC1Cn1cnc2c(Nc3ccc(OCc4cccc(F)c4)c(Cl)c3)ncnc21` (centres undefined), the GI50 is 0.971 µM and the TGI was determined as 2.71 µM.
Take `C[C@@H](Oc1cc(-n2cnc3ccc(CN4CCN(C)CC4)cc32)sc1C(N)=O)c1ccccc1C(F)(F)F`: the GI50 was 0.0326 µM and 0.0382 µM; the TGI was 16.7 µM and > 10 µM.

A further experiment relates to T-47D breast. The experiment is described as follows: NCI anticancer screen, dose series, 48 h.
As to `C=CC(=O)Nc1cc(Nc2ncc(C(=O)OC(C)C)c(-c3cn(C)c4ccccc34)n2)c(OC)cc1N(C)CCN(C)C`, the GI50 was 0.396 µM and the TGI worked out at 14 µM.
For the compound `COc1cnc2c(c1)C(=O)c1c-2n(CCCN2CCOCC2)c(=O)c2cc(F)ccc12`, the GI50 is 0.118 µM and the TGI was found to be 0.69 µM.
Consider `CN(C)c1ccc(/C=C\C2=[N+](C)c3ccccc3C2(C)C)cc1`, for which the GI50 was 0.634 µM and the TGI was over 33.2 µM.
Take `Nc1nc(-n2c(-c3ccccc3)nc3c(Br)cc(Br)cc3c2=O)nnc1-c1cccc(Cl)c1Cl`: the GI50 was over 100 µM and the TGI was over 100 µM.
As for `Cc1ccnc2c1ccc1c(C)ccnc12`, the GI50 was 0.883 µM and the TGI turned out to be 12.6 µM.
For `NS(=O)(=O)OC[C@@H]1C[C@@H](n2ccc3c(NC4CCc5ccccc54)ncnc32)C[C@@H]1O` (some centres undefined) the same measures were 0.0607 µM and 63.6 µM.
Regarding `O=C1/C(=C/c2ccc(O)c(O)c2)CCC/C1=C\c1ccc(O)c(O)c1`, the TGI is over 48.1 µM.
`Nc1ccccc1C#C/C=C\C#Cc1ccccc1OC(F)(F)F`: the GI50 is 4.19 µM and the TGI turned out to be 74.1 µM.
Take `Cc1ccc(CN2CCC(C(=O)Nc3ccc(-c4cc5ccccc5[nH]4)cc3)CC2)o1`: the GI50 is over 100 µM and the TGI was over 100 µM.
Regarding `C=CCOc1ccc2c(C)cc(=O)oc2c1C`, the TGI is over 100 µM.
For the compound `Fc1ccc(NC(=S)SCc2ccc3c(c2)OCO3)cc1F`, the TGI turned out to be 33 µM.
On to `COc1cc2c(c(OC)c1OC)-c1ccc(NNC(N)=S)c(=O)cc1[C@@H](NC(C)=O)CC2`, for which the GI50 is over 100 µM and the TGI is over 100 µM.
Compound `CCOC(=O)Cn1c(C(F)(F)F)nc2nc(Cl)c(Cl)nc21` returned a TGI of over 100 µM.
Turning to `Cc1ccc(Cl)c2c(N=Nc3ccccc3[N+](=O)[O-])c(O)[nH]c12`, the TGI was over 100 µM.
Turning to `OC1CSSC1Cn1cnc2c(Nc3ccc(OCc4cccc(F)c4)c(Cl)c3)ncnc21` (centres undefined), the GI50 was 1.3 µM and the TGI came out at 8.4 µM.
Regarding `C[C@@H](Oc1cc(-n2cnc3ccc(CN4CCN(C)CC4)cc32)sc1C(N)=O)c1ccccc1C(F)(F)F`, the GI50 is 3.35 µM; the TGI was 21.4 µM and > 10 µM.

Another experiment has as its system SF-539 CNS. In words: NCI anticancer screen, dose series, 48 h.
Take `C=CC(=O)Nc1cc(Nc2ncc(C(=O)OC(C)C)c(-c3cn(C)c4ccccc34)n2)c(OC)cc1N(C)CCN(C)C`: the GI50 is 3.1 µM and the TGI was found to be 9.45 µM.
The matching figures for `COc1cnc2c(c1)C(=O)c1c-2n(CCCN2CCOCC2)c(=O)c2cc(F)ccc12`: 0.288 µM and 1.08 µM.
As for `CN(C)c1ccc(/C=C\C2=[N+](C)c3ccccc3C2(C)C)cc1`, the GI50 is 1.12 µM and the TGI came out at 16.7 µM.
Take `Nc1nc(-n2c(-c3ccccc3)nc3c(Br)cc(Br)cc3c2=O)nnc1-c1cccc(Cl)c1Cl`: the GI50 is 7.8 µM and the TGI is 40.4 µM.
On to `Cc1ccnc2c1ccc1c(C)ccnc12`, for which the GI50 is 0.316 µM and the TGI turned out to be 5.06 µM.
Regarding `NS(=O)(=O)OC[C@@H]1C[C@@H](n2ccc3c(NC4CCc5ccccc54)ncnc32)C[C@@H]1O` (some centres undefined), the GI50 is 1.28 µM and the TGI was 20.3 µM.
Consider `O=C1/C(=C/c2ccc(O)c(O)c2)CCC/C1=C\c1ccc(O)c(O)c1`, for which the TGI is 8.99 µM.
Turning to `Nc1ccccc1C#C/C=C\C#Cc1ccccc1OC(F)(F)F`, the GI50 was 3.5 µM and the TGI came out at 13.3 µM.
Consider `Cc1ccc(CN2CCC(C(=O)Nc3ccc(-c4cc5ccccc5[nH]4)cc3)CC2)o1`, for which the GI50 is over 100 µM and the TGI is over 100 µM.
Consider `C=CCOc1ccc2c(C)cc(=O)oc2c1C`, for which the TGI is over 100 µM.
The compound `Fc1ccc(NC(=S)SCc2ccc3c(c2)OCO3)cc1F` gave a TGI of 53.5 µM.
In the case of `COc1cc2c(c(OC)c1OC)-c1ccc(NNC(N)=S)c(=O)cc1[C@@H](NC(C)=O)CC2`, the GI50 is 0.338 µM and the TGI amounted to 4.31 µM.
As to `CCOC(=O)Cn1c(C(F)(F)F)nc2nc(Cl)c(Cl)nc21`, the TGI was over 85.4 µM.
For `Cc1ccc(Cl)c2c(N=Nc3ccccc3[N+](=O)[O-])c(O)[nH]c12`, the TGI stood at 48.6 µM.
As for `OC1CSSC1Cn1cnc2c(Nc3ccc(OCc4cccc(F)c4)c(Cl)c3)ncnc21` (centres undefined), the GI50 was 1.89 µM and the TGI came to 7.67 µM.
On to `C[C@@H](Oc1cc(-n2cnc3ccc(CN4CCN(C)CC4)cc32)sc1C(N)=O)c1ccccc1C(F)(F)F`, for which the GI50 was 0.0369 µM and 0.0302 µM; the TGI was 2.09 µM.

The next experiment relates to K-562 leukemia. The experiment is described as follows: NCI anticancer screen, dose series, 48 h.
Regarding `C=CC(=O)Nc1cc(Nc2ncc(C(=O)OC(C)C)c(-c3cn(C)c4ccccc34)n2)c(OC)cc1N(C)CCN(C)C`, the GI50 is 2.22 µM and the TGI was over 23.4 µM.
Regarding `COc1cnc2c(c1)C(=O)c1c-2n(CCCN2CCOCC2)c(=O)c2cc(F)ccc12`, the GI50 is 0.32 µM and the TGI is over 100 µM.
The matching figures for `CN(C)c1ccc(/C=C\C2=[N+](C)c3ccccc3C2(C)C)cc1`: 1.77 µM and over 100 µM.
For `Nc1nc(-n2c(-c3ccccc3)nc3c(Br)cc(Br)cc3c2=O)nnc1-c1cccc(Cl)c1Cl` the same measures were 4.7 µM and 7.66 µM.
The matching figures for `Cc1ccnc2c1ccc1c(C)ccnc12`: 0.395 µM and 25.9 µM.
With `NS(=O)(=O)OC[C@@H]1C[C@@H](n2ccc3c(NC4CCc5ccccc54)ncnc32)C[C@@H]1O` (some centres undefined), the GI50 was 0.405 µM and the TGI came to 32.3 µM.
Turning to `O=C1/C(=C/c2ccc(O)c(O)c2)CCC/C1=C\c1ccc(O)c(O)c1`, the TGI is over 60.1 µM.
Regarding `Nc1ccccc1C#C/C=C\C#Cc1ccccc1OC(F)(F)F`, the GI50 was 2.31 µM and the TGI was over 100 µM.
The matching figures for `Cc1ccc(CN2CCC(C(=O)Nc3ccc(-c4cc5ccccc5[nH]4)cc3)CC2)o1`: over 100 µM and over 100 µM.
With `C=CCOc1ccc2c(C)cc(=O)oc2c1C`, the TGI was over 100 µM.
Still for that read-out and setting: next, `Fc1ccc(NC(=S)SCc2ccc3c(c2)OCO3)cc1F`: 59 µM.
For `COc1cc2c(c(OC)c1OC)-c1ccc(NNC(N)=S)c(=O)cc1[C@@H](NC(C)=O)CC2`, the GI50 is 0.348 µM and the TGI was over 100 µM.
Turning to `CCOC(=O)Cn1c(C(F)(F)F)nc2nc(Cl)c(Cl)nc21`, the TGI is over 100 µM.
Compound `Cc1ccc(Cl)c2c(N=Nc3ccccc3[N+](=O)[O-])c(O)[nH]c12` showed a TGI of over 100 µM.
For the compound `OC1CSSC1Cn1cnc2c(Nc3ccc(OCc4cccc(F)c4)c(Cl)c3)ncnc21` (centres undefined), the GI50 is 0.604 µM and the TGI worked out at 1.5 µM.
As for `C[C@@H](Oc1cc(-n2cnc3ccc(CN4CCN(C)CC4)cc32)sc1C(N)=O)c1ccccc1C(F)(F)F`, the GI50 was 0.00317 µM.
